Data as given in patent US20130245081A1, “Compositions and Methods for Treating Amyotrophic Lateral Sclerosis” (priority 2009, published 2013).

Assay: clinical
Conditions: for AUC(0-t) / AUC(0-inf) / Cmax / Tmax / Vd/F / half-life / CL renal: both, human, oral; for AUC(0-t) / AUC(0-inf) / Cmax / Tmax / Vd/F / half-life: plasma; for AUC(0-t): AUC0-t; for AUC(0-inf): AUCinf; for Vd/F: Vz/F; for CL renal: urine and plasma, CLr
Source text: A total of 54 subjects (30 subjects in Study CL001 and 24 subjects in Study CL002) were enrolled. Healthy, non-smoking, male and female subjects 30 to 60 years of age, inclusive, with normal or clinically acceptable physical examination and electrocardiogram (ECG) findings, systolic (90 to 140 mmHg) and diastolic (50 to 90 mmHg) blood pressure, and resting heart rate (50 to 100 bpm) who were willing to provide signed, written informed consent were eligible for enrollment. Female volunteers had to be of non-childbearing potential with negative pregnancy test results at screening and clinic check-in. Subjects with any history of neurodegenerative illnesses were excluded. The use of over-the-counter medications within 7 days prior to enrollment or prescription medications within 12 weeks prior to enrollment was prohibited.
In the first study, subjects were enrolled in 3 successive double-blind, placebo-controlled panels of 8 subjects (n=6 active, n=2 placebo per panel).
Matching placebo capsules contained equivalent weights of microcrystalline cellulose. Capsules were administered orally with water. […] Subjects in the fasted cohorts were required to fast overnight for a minimum of 10 hours before dose administration. Subjects in the food cohort were required to fast overnight for a minimum of 10 hours before dose administration, with exception of the high fat/high calorie meal that was administered 30 minutes prior to drug administration. […] All available safety data were reviewed under blinded conditions to monitor for serious safety or tolerability events prior to proceeding with dose escalations.
Blood samples were collected into a 10 mL dipotassium ethylenediaminetetraacetic acid (K2-EDTA) Vacutainer® via an indwelling peripheral intravenous cannula or by direct venipuncture. Within 15 minutes of collection, the samples were centrifuged at 3000 rpm for 10 minutes at 4° C. After centrifugation, the plasma was divided into 2 aliquots of at least 1.5 mL each, placed into polypropylene containers, frozen, and stored at −20° C. until they were shipped for analysis.
Urine collected in each interval was well mixed, the pH was recorded, the total volume (or the weight and specific gravity) was recorded, and 2 aliquots of 20 mL each were collected into polypropylene containers and stored at −20° C. until they were shipped for analysis. All plasma and urine sample were shipped frozen on dry ice in 2 separate shipments per group (1 set of aliquots per shipment) to Eurofins AvTech Laboratories Inc. (Kalamazoo, Mich.) for bioanalytical analysis.
Plasma and urine concentrations were measured using validated liquid chromatography/mass spectrometry/mass spectrometry (LC/MS/MS) methods. […] The analytical procedure for analysis of plasma samples used a 100 μL aliquot of K2EDTA human plasma. The plasma sample was spiked with 20 μL of working internal standard solution and 20 μL of type 1 water for subject samples and QCs and 20 μL of the appropriate intermediate standard solution for standards. One hundred microliters ([…]) of 50% ammonium hydroxide solution was added to the sample followed by vortex mixing. One milliliter (1 mL) of tertbutyl methyl ether was then added and the sample was vortexed to extract the analyte and internal standard into the organic layer, followed by separation using flash freezing. The organic layer was decanted, evaporated to dryness, and the sample was reconstituted with 0.5 mL of reconstitution solution (0.1% ammonium hydroxide in 50:50 methanol; type 1 water (v/v/v)). A 10 μL aliquot of this reconstituted sample was injected into an LC/MS/MS system for analysis. […] The analytical procedure for analysis of urine samples was essentially similar to the plasma procedure.

In the case of `CCCN[C@@H]1CCc2nc(N)sc2C1` [dexpramipexole, (6R)-2-amino-4,5,6,7-tetrahydro-6-(propylamino)benzothiazole], the “eliminated in urine as unchanged parent drug” value (both Phase 1 studies) is reported as 84-90 % of dose, the AUC(0-t) (50 mg, single 50 mg, fasted) is reported as 989 ± 295 ng·h/mL and the AUC(0-inf) (50 mg, single 50 mg, fasted) is reported as 1250 ± 347 ng·h/mL. The Cmax (50 mg, single 50 mg, fasted) was 125 ± 22 ng/mL, the Tmax (50 mg, Tmax (median), single 50 mg, fasted) was 2.04 h and the Vd/F (50 mg, single 50 mg, fasted) was 294 ± 46.2 L. The AUC(0-t) (150 mg, single 150 mg, fasted) was 3360 ± 780 ng·h/mL, the AUC(0-t) (150 mg, single 150 mg, fed) was 3080 ± 934 ng·h/mL and the AUC(0-inf) (150 mg, single 150 mg, fasted) was 3780 ± 1010 ng·h/mL. For the same molecule, the AUC(0-inf) (150 mg, single 150 mg, fed) was 3380 ± 957 ng·h/mL, the Cmax (150 mg, single 150 mg, fasted) was 360 ± 60.4 ng/mL and the Cmax (150 mg, single 150 mg, fed) was 315 ± 61.6 ng/mL. It also gave a Tmax (150 mg, Tmax (median), single 150 mg, fasted) of 2.04 h, a Tmax (150 mg, Tmax (median), single 150 mg, fed) of 2.58 h and a Vd/F (150 mg, single 150 mg, fasted) of 311 ± 68.4 L. It also gave a Vd/F (150 mg, single 150 mg, fed) of 308 ± 55.9 L, a half-life (150 mg, t1/2, single 150 mg, fed) of 6.33 ± 1.49 h and an AUC(0-t) (300 mg, single 300 mg, fasted) of 8340 ± 3200 ng·h/mL. It also gave an AUC(0-inf) (300 mg, single 300 mg, fasted) of 8620 ± 3260 ng·h/mL, a Cmax (300 mg, single 300 mg, fasted) of 781 ± 158 ng/mL and a Tmax (300 mg, Tmax (median), single 300 mg, fasted) of 1.98 h. For the same molecule, the Vd/F (300 mg, single 300 mg, fasted) was 258 ± 73.5 L, the half-life (300 mg, elimination t1/2, single 50, 150, 300 mg, fasted) was 6.4 to 6.96 h and the Tmax (Tmax, range over both Phase 1 studies, single and multiple doses) was 1.75 to 2.58 h. For the same molecule, the half-life (t1/2, range over both Phase 1 studies, fasted conditions) was 6.4 to 8.05 h, the CL renal (50 mg, single 50 mg, fasted) was 628 ± 149 mL/min and the CL renal (150 mg, single 150 mg, fasted) was 385 mL/min. For the same molecule, the CL renal (150 mg, single 150 mg, fed) was 559 ± 140 mL/min, the CL renal (300 mg, single 300 mg, fasted) was 441 ± 159 mL/min and the “time of maximum concentrations after dosing” value (oral administration) was 2 h. It also gave a CL/F (single 50 mg, fasted) of 527 ± 135 mL/min, a Fe (single 50 mg, fasted) of 94.7 ± 13.9 % dose and a Ue (single 50 mg, fasted) of 35.3 ± 5.19 mg. It also gave a λz (single 50 mg, fasted) of 0.1064 ± 0.0171 h⁻¹, a CL/F (single 150 mg, fasted) of 524 ± 146 mL/min and a Fe (single 150 mg, fasted) of 66.9 ± 44.8 % dose. For the same molecule, the Ue (single 150 mg, fasted) was 74.8 ± 50.17 mg, the λz (single 150 mg, fasted) was 0.1001 ± 0.0087 h⁻¹ and the CL/F (single 150 mg, fed) was 581 ± 127 mL/min. The Fe (single 150 mg, fed) was 86.6 ± 4.21 % dose, the Ue (single 150 mg, fed) was 96.9 ± 4.71 mg and the λz (single 150 mg, fed) was 0.1144 ± 0.0259 h⁻¹. The CL/F (single 300 mg, fasted) was 492 ± 194 mL/min, the Fe (single 300 mg, fasted) was 88.3 ± 12.5 % dose and the Ue (single 300 mg, fasted) was 198 ± 28.0 mg. For the same molecule, the λz (single 300 mg, fasted) was 0.1151 ± 0.0309 h⁻¹ and the “dose recovered as unchanged parent drug in the urine” value (single doses) was “Approximately 90%”.
